Two compounds from PMC3593989 (Biochimica et biophysica acta, 2013) can be followed below.

The target in assay [1] is T1, acyl-CoA synthetase 4 (Acsl4) (Rattus norvegicus, UniProt O35547). It is filed as biochemical.
Assay [2] addresses T1, acyl-CoA synthetase 4 (Acsl4). It is filed as biochemical. The source holds these as a separate data set.

T1 sequence (O35547 whole entry): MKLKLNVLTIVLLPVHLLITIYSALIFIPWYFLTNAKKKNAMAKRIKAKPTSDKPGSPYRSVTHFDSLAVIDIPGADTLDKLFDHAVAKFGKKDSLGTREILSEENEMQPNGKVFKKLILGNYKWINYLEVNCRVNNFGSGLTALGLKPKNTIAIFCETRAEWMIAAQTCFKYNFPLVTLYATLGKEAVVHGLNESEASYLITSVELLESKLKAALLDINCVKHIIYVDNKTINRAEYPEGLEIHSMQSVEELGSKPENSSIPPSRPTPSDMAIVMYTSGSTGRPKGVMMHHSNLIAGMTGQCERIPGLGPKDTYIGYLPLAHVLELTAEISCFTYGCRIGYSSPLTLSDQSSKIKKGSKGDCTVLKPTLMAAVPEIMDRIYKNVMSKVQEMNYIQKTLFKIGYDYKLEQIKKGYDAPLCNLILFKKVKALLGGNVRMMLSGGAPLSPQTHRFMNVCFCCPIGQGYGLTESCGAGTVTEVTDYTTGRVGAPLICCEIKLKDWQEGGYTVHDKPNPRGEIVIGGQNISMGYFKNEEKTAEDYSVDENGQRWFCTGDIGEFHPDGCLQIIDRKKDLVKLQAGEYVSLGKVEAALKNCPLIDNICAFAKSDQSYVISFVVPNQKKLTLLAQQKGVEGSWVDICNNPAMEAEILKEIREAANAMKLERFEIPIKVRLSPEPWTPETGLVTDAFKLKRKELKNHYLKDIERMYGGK

`CCCC(C(=O)O)C(C)C` (racemic) [PIA, 2-isopropylpentanoic acid] returned a Ki in assay [1] of 11.4 ± 1.28 mM.
As for `CCCCC/C=C\C/C=C\C/C=C\C/C=C\CCCC(=O)O` [AA, arachidonic acid], the Michaelis-Menten constant (Km) in assay [2] turned out to be 4.12 ± 0.56 µM.
